Values of other authors in patent US20110200683A1, “Hydrogen peroxide solution producing first aid substance, packaging, and treatment” (Piper Medical, Inc, priority 2010, published 2011).

Legend:
[1] = in water
[2] = temperatures above 50° C

solubility sufficient to create a hydrogen peroxide concentration [1]: ≥ 3%
stability [2]: relatively stable
SMILES: NC(N)=O.OO [percarbamide]
